pIC50: −log10 of the molar value.
What was measured:
[1] = Aqueous solubility in 0.25% DMSO by NMR spectroscopy; format: physicochemical; details: aqueous, kinetic from dmso stock; 0.25% DMSO, NMR spectroscopy; read-out: aqueous solubility
Protocol: Al-10-104, Al-12-126, and Al-14-91 were all soluble at concentrations above 100 μM. […] As the Runt domain is highly conserved among all three RUNX family members, we would expect to see similar effects on binding to RUNX2 or RUNX3. Therefore, the action of the inhibitors will likely affect the activity of all three RUNX family members.

[2] = Sedative effects and tolerability in mice after IP administration; format: in vivo; details: intraperitoneal (IP) injection
Text: “NA” indicates not active. […] Reasoning that this effect depended on the ability of the compound to cross the blood brain barrier (BBB), compounds Al-12-126 and Al-14-91 have appended morpholine ring substituents to the 5 position of the pyridine ring to increase the polarity of the compounds and thereby limit BBB penetration.

[3] = tested on: inducible Runx1 (iRx) ES cells; assay: Inducible Runx1 (iRx) ES cell differentiation system, FACS; format: cell-based
Protocol: FIG. 3A is a schematic diagram representing the inducible Runx1 (iRx) ES cell differentiation system. ES cells were allowed to form embryoid bodies (EB) in IVD culture media and hemangioblast Flk1 positive cells were sorted and seeded into blast culture media. After 2 days, a second Flk1 sort was performed and Flk1 positive cells were cultured in hemogenic endothelium culture conditions. In the absence of doxycycline (−dox), Runx1 is absent and cells cannot progress from the HE1 stage of development. In the presence of doxycycline (+dox), Runx1 is expressed and differentiation progresses, resulting in the formation of CD41+ve/c-kit+ve floating progenitors.
FIG. 3C provides representative FACS histograms showing staining of the surface markers CD41 and c-kit in cells treated with the compounds and in the presence or absence of doxycycline, as indicated.
FIG. 3D provides representative FACS histograms showing staining of Annexin V and Propidium Iodide (PI) in cells treated with compounds Al-10-104 and Al-4-88 in the absence or presence of doxycycline, as indicated.

[4] = tested on: 11 leukemia cell lines; assay: Viability of a panel of 11 leukemia cell lines; format: cell-based; details: 48 hours of treatment
Text: Compounds Al-4-88, Al-4-57, Al-10-47, Al-10-104, and Al-14-91 were screened against a panel of 11 leukemia cell lines with varying genotypes.
The viability is represented as the percent DAPI negative cells relative to DMSO control. Each symbol/color in the graphs of FIG. 4 represent an individual cell line. The symbol represents the mean of independent replicates and the error bars represent the SEM. The table indicates the morphology, type of leukemia, and known mutations for each of the 11 cell lines.

[5] = tested on: T-ALL cell lines Jurkat, HBP-ALL, Loucy, and KOPTK1; assay: Proliferation of T-ALL cell lines; format: cell-based, human
[6] = tested on: primary T-ALL patient samples; assay: Apoptosis of primary T-ALL patient samples; format: cell-based, human
[7] = tested on: MCF10A-5E cells; assay: Multiacini formation in 3D culture of MCF10A-5E cells; format: cell-based; details: shRUNX1 or control cells, 3D culture 10-11 days, compared to carrier control or Al-4-88
Text: CBFβ inhibitors altered acinar morphogenesis of the basal-like (triple negative) breast epithelial cells and blocked survival of basal-like breast cancer cells in 3D organotypic culture. To evaluate whether CBFβ inhibition would influence the multicellular organization of basal-like breast epithelia, 3D culture of MCF10A-5E cells was used. Knockdown of RUNX1 in these cells delayed proliferation arrest and promoted the formation of nonspherical acini, indicating a role for RUNX1 during morphogenesis.
The multiacini resulting from CBFβ inhibition were not radially symmetric, thereby arguing against a general defect in cell polarity or proliferation arrest. Instead, the inhibitors appeared to be initiating a nascent branching program that is reminiscent of when TGFβ-family signaling is impaired.
FIG. 9A: MCF10A-5E cells stably expressing shRUNX1 or shGFP control were grown in 3D culture for 10-11 days with the indicated compounds and imaged by Brightfield microscopy. The total number of multiacini per chamber was counted and scaled to the shGFP DMSO control. Data are shown as the mean±SEM of eight independent cultures.

[8] = tested on: lung cancer cell lines; assay: MTT growth assay, several lung cancer cell lines; format: cell-based
Protocol: (§1) Activity of Al-10-104 was tested using several lung cancer cell lines and one immortalized, non-transformed lung cell line. […] Data for the squamous cell carcinoma of the lung cell line H520 and the immortalized normal lung epithelial cell line BEAS-2B are shown in FIG. 10.

[9] = tested on: H520 lung cancer cells; assay: MTT growth assay, H520 cells; format: cell-based; details: H520, 10 μM, 72 hrs
Protocol: as §1
(§2) H520 cells were cultured in RPMI 1640 medium, supplemented with fetal bovine serum (10% final concentration), Hepes (1%), and sodium priruvate (1%). The MTT assay used 4×10^5/ml cells. BEAS-2B cells were cultured in DMEM medium with fetal bovine serum (10% final concentration). The MTT assay for the BEAS-2B cell line was performed using 3.5×10^5/ml cells.
(§3) Al-4-88 had no effect on either cell line.

[10] = tested on: BEAS-2B normal lung cells; assay: MTT growth assay, BEAS-2B cells; format: cell-based; details: 10 μM, 72 hrs
Protocol: as §1, §2, §3

[11] = tested on: OVCAR8 ovarian cancer cells; assay: CellTiter-Glo viability assay, OVCAR8; format: cell-based; details: Homo sapiens, OVCAR-8, OVCAR8, 72 hours
Protocol: (§4) OVCAR8 cells were grown in RPMI 1640 supplemented with 10% Fetal bovine serum and 1% antibiotics. OVCAR4 cells were grown in RPMI 1640 supplemented with 20% fetal bovine serum and 1% antibiotics. Cells growing at approximately 70% confluency were trypsinized and 2500 cells per well were re-plated in opaque bottomed 96-well plates.
(§5) 24 hours after plating, chemical compounds diluted in DMSO were mixed with cell growth media and added to cells. Compounds mixed with media were made at 10× concentration. Cells treated with compounds were incubated for 72 hours in a humidified incubator at 37° C. supplemented with 5% CO2. Percentage of cells viable after 72 hours was determined by CellTitler-Glo according to the manufacturer's instructions. Data analysis was performed using GraphPad 5.0.
(§6) In the graph, the ordinate represents % inhibition and the abscissa represents the log value of the concentration of the compound.

[12] = tested on: OVCAR4 ovarian cancer cells; assay: CellTiter-Glo viability assay, OVCAR4; format: cell-based; details: Homo sapiens, OVCAR-4, OVCAR4, 72 hours
Protocol: as §4, §5, §6

## COc1cccnc1-c1nc2cc(OC(F)(F)F)ccc2[nH]1 [Al-10-104]
[1]
  solubility: > 100 µM
[2]
  sedative effects: significant sedative effects that were lethal at high doses
[3]; 10 μM, in the presence of doxycycline
  percentage of cells expressing c-kit and CD41: reduced
[3]; adherent cells, absence or presence of doxycycline
  apoptosis (Annexin V and PI staining): apoptosis is not increased
[4]
  percent viability (DAPI negative cells relative to DMSO): significant inhibition of the majority of the cell lines
[5]
  proliferation: inhibited proliferation
[6]
  apoptosis: induced apoptosis
[7]
  formation of multiacinar structures: dramatic increase
[8]
  growth inhibition (MTT assay): growth inhibition
[9]
  cell growth (MTT assay): inhibited almost as effectively as 1 μM staurosporine
[10]
  cell growth (MTT assay): no effect
[11]
  pIC50: 5.31
[12]
  pIC50: 5.23

From patent US10562890B2, “Cancer therapeutics” (UNIVERSITY OF VIRGINIA PATENT FOUNDATION, priority 2014, dated 2020)
